Assay results from PMC7608663, “Pharmacokinetic–pharmacodynamic modelling of the hypoglycaemic effect of pulsatile administration of human insulin in rats” (Scientific Reports, 2020).

Columns and labels:
[1] = tested on: plasma glucose concentration; assay: Hypoglycaemic effect (plasma glucose) after intravenous INS, PK-PD indirect response modelling; assay type: in vivo, rat
Text: An indirect response model was used to analyse the PK–PD relationship. The differential equation for the INS stimulus of the model is as follows:5 dGlc/dt=KGin-1+Smax∙SIG^γ/SC50^γ+SIG^γkGout∙Glc, where Glc is the plasma glucose concentration (mg/dL), SIG is the theoretical signal strength concerned with the hypoglycaemic effect of INS, Smax is the maximum effect, SC50 is the SIG producing 50% of Smax, r is Hill’s constant, KGin is the zero-order rate constant concerned with endogenous glucose production, and kGout is the first-order rate constant (min^−1) concerned with glucose elimination. Before INS is administered, the observed baseline level of Glc is maintained as G00 (105.12 mg/dL), which is determined by KGin = kGout.G00. Equation (5) can comprehensively express the mechanism of action of INS that is not assumed in the following model.
To assess the contribution of the receptor-binding process of INS to the hypoglycaemic effect, the INS receptor-based PK–PD model (IR model) was designed as follows:6 ϕ=CIns∙100/Kd+CIns-ϕ00.
We assumed that SIG is equal to the value of Φ in this model. To evaluate the contribution of the translocation process to the hypoglycaemic effect, the GLUT4 translocation-based PK–PD model (GT model) was designed as follows:7 dG4A/dt=α∙CIns-C00-G4A/TAB, 8 dG4B/dt=G4A/TAB-G4B/TBA. […]

[2] = tested on: INS receptors, rat soleus muscle cells; settings: fixed value in the IR model, read-out: dissociation constant (Kd); cited from earlier work
Text: In the post-prandial state, the uptake of glucose from the blood in vivo mainly occurs in skeletal muscle, which expresses INS receptors. […] Although there are various kinds of skeletal muscle in the body, it would not be useful to individually model each receptor in all skeletal muscles, because this complicates the model. […] We assumed that SIG is equal to the value of Φ in this model. To evaluate the contribution of the translocation process to the hypoglycaemic effect, the GLUT4 translocation-based PK–PD model (GT model) was designed as follows:7 dG4A/dt=α∙CIns-C00-G4A/TAB, 8 dG4B/dt=G4A/TAB-G4B/TBA. || page 3: Parameters Estimated values Pharmacokinetic parameters k12 (min-1) 0.843 ± 0.25 k (min-1) 0.419 ± 0.073 21 k10 (min-1) 0.000314 ± 0.0079 Km (ng/kg) 1538 ± 624 Vmax (ng/kg/min) 3243 ± 649 Vc (mL/kg) 29.3 ± 6.6 Pharmacodynamic parameters of the IR model Kd (nmol/L) 2.062 FIX SC50IR (%) 7.60 ± 1.8 SmaxIR 3.01 ± 0.31 γ 2.25 ± 1.8 IR kGoutIR (min-1) 0.0208 ± 0.0018 Pharmacodynamic parameters of the GT model α 0.153 ± 0.56 T (min) 3 FIX AB TBA (min) 20 FIX SC50GT 100.22 ± 354 SmaxGT 2.58 ± 1.3 γGT 0.736 ± 0.11 kGoutGT (min-1) 0.141 ± 0.021 Supplementary Table S1. Pharmacokinetic and pharmaco ...

[3] = rat, in vivo, iv; SD
Description: Animal experiments were performed following the procedures as described earlier[26], with slight adaptations. In short, male Wistar rats (Japan SLC, Shizuoka, Japan) weighing 270–320 g were used in this study. Rats were housed in controlled environmental facilities (temperature: 24 ± 1 °C, humidity: 55% ± 10%) under a 12:12-h light–dark cycle (06:00 h/18:00 h) for more than 1 week and allowed free access to a standard diet and tap water. One day before the experiment, rats were anaesthetized with ethyl ether and implanted surgically with a phycon tube connected to a PE50 catheter in the jugular vein for drug administration and another phycon-PE50 catheter in the femoral vein for blood sampling. Both catheters were externalized through the back in the neck region and secured. Unless otherwise specified, all animal experiments were conducted without restraint or anaesthesia and in a fasted state. On the day of the experiment, each rat was housed in an individual cage and left alone for at least 1 h. INS was dissolved in a 0.1% bovine serum albumin solution. Pulsatile administration of INS was performed by repeated intravenous bolus injections at constant intervals of 6–60 min within 2 h (total dose: 0.5 IU/kg). As controls, a single bolus injection or 2-h infusion were also conducted at doses of 0.5 IU/kg and 0.25 IU/kg/h, respectively. INS (0.025–0.5 IU/kg) was intravenously injected to estimate PK and PD parameters. Blood samples (≤ 0.1 mL) were withdrawn from the femoral vein before and at designated times after dosing. The blood samples were transferred to heparinized tubes, then centrifuged (12,000 × g, 5 min). The isolated plasma was stored frozen at − 20 °C until analysis. Immunoreactive INS concentrations in plasma were determined using an enzyme-linked immunosorbent assay (ELISA) kit (Shibayagi, Gunma, Japan). The mutarotase glucose oxidase method kit (Wako Pure Chemical Industries, Osaka, Japan) was used to measure plasma glucose concentrations. […]
The concentration–time data were analysed by the nonlinear regression program FKDM[27]. […]

In the case of Human recombinant INS (Humulin R), the “time required for the maximal hypoglycaemic effect” value ([1]; after single i.v. bolus administration, rats (Fig. 3)) is listed as “about 20 min”, the “area between the effect-time curve and the basal concentration (AUE), pulsatile administration compared with single bolus” value ([1]; total 0.5 IU/kg i.v. within 2 h, 2-20 pulses vs bolus 0.5 IU/kg, rats, depends on pulse rate, saturated above four injections, Dunnett's test, n = 3-4) is listed as “significantly higher” and the Kd [2] is listed as 2.06 nM. The “Km, Michaelis-Menten kinetic constant of elimination” value [3] was 1538 ± 624 ng/kg, the “Vc, volume of distribution for the central (plasma) INS compartment” value [3] was 29.3 ± 6.6 mL/kg and the “Vmax, Michaelis-Menten kinetic constant of elimination” value [3] was 3243 ± 649 ng/kg/min.
